Experimental data reported in ChEMBL document CHEMBL1926529, “Synthesis of novel benzofurocoumarin analogues and their anti-proliferative effect on human cancer cell lines” (2012).
Activity calls are given as the source filed them. The rule behind the calls is not given here.

Legend:
[1] = tested on: HeLa; assay: Growth inhibition of human HeLa cells assessed as cell viability after 48 hrs by MTS assay; format: functional
[2] = tested on: MDA-MB-231; assay: Growth inhibition of human MDA-MB-231 cells assessed as cell viability after 48 hrs by MTS assay; format: functional; details: MDA-MB-231, 48 h
[3] = tested on: TCC-SUP; assay: Growth inhibition of human TCCSUP cells assessed as cell viability at 0.5 uM after 48 hrs by MTS assay; format: functional, cell-based
[4] = tested on: MDA-MB-231; assay: Growth inhibition of human MDA-MB-231 cells assessed as cell viability at 0.5 uM after 48 hrs by MTS assay; format: functional, cell-based
[5] = tested on: TCC-SUP; assay: Growth inhibition of human TCCSUP cells assessed as cell viability after 48 hrs by MTS assay; format: functional
[6] = tested on: HeLa; assay: Growth inhibition of human HeLa cells assessed as cell viability at 0.5 uM after 48 hrs by MTS assay; format: functional, cell-based

Compound | GI50 [1] [nM] | GI50 [2] [nM] | growth inhibition (GI) [3] | growth inhibition (GI) [4] | GI50 [5] [nM] | growth inhibition (GI) [6]
COC(=O)C(C)NC(=O)c1cc2c(ccc3oc4ccccc4c32)oc1=O (stereo not given) | 53 | 106 | Active | Active | 159 | Active
CCOC(=O)C(CC(C)C)NC(=O)c1cc2c(ccc3oc4ccccc4c32)oc1=O (stereo not given) | 43 | 205 | Active | Active | 122 | Active
O=c1ccc2c(ccc3oc4ccccc4c32)o1 | 5 | 467 | Active | Active | 31 | Active

Now from value to molecule, other results behind:

GI50 [1] [nM] | GI50 [2] [nM] | Compound | growth inhibition (GI) [3] | growth inhibition (GI) [4] | GI50 [5] [nM] | growth inhibition (GI) [6]
2 | 83 | CCOC(=O)c1cc2c(ccc3oc4ccccc4c32)oc1=O | Active | Active | 12 | Active
3 | 97 | O=C(O)c1cc2c(ccc3oc4ccccc4c32)oc1=O | Active | Active | 50 | Active
